Structures can show the parent of a compound that is named as a salt.
Biological target: T1, human prion protein 91–231 (Homo sapiens, UniProt P04156)
T1 construct: gene PRNP
Assay: biochemical
Format: binding

With `COc1cc(-c2ccc(N=Nc3ccc4c(S(=O)(=O)O)cc(S(=O)(=O)O)c(N)c4c3O)c(OC)c2)ccc1N=Nc1ccc2c(S(=O)(=O)O)cc(S(=O)(=O)O)c(N)c2c1O` [Chicago Sky Blue 6B] the Kd was 1.43 ± 0.24 µM.

Biological target: T2, human prion protein 23–231 (PrP, unlabeled wild type) (Homo sapiens, UniProt P04156)
T2 construct: gene PRNP
Assay: biochemical
Format: binding

`NC(CO)C(=O)NNCc1ccc(O)c(O)c1O` (stereo not shown) [Benserazide HCl] and `O=C1c2c(O)cccc2Cc2cccc(O)c21` [Anthralin] cannot be ordered by IC50: > 100 µM for the first, > 100 µM for the second.

First: COc1cc(C(=O)NS(=O)(=O)c2ccccc2C)ccc1Cc1cn(C)c2ccc(NC(=O)OC3CCCC3)cc12 [Zafirlukast]
Second: CC(C)/N=c1\cc2n(-c3ccc(Cl)cc3)c3ccccc3nc-2cc1Nc1ccc(Cl)cc1 [Clofazimine]
The IC50 of the first is lower: 85.7 µM for the first, > 100 µM for the second. The first is the more potent here.

First: CC[N+](C)(CC)CCC[n+]1c(-c2ccccc2)c2cc(N)ccc2c2ccc(N)cc21 [Propidium iodide]
Second: C[C@@H]1[C@H](O)[C@@H](C)/C=C/C=C/C=C/C=C/C=C/C=C/C=C/[C@H](O[C@@H]2O[C@H](C)[C@@H](O)[C@H](N)[C@@H]2O)C[C@@H]2O[C@](O)(C[C@@H](O)C[C@@H](O)[C@H](O)CC[C@@H](O)C[C@@H](O)CC(=O)O[C@H]1C)C[C@H](O)[C@H]2C(=O)O [Amphotericin B]
The IC50 of the first is higher: > 100 µM for the first, 88.8 µM for the second. The second is the more potent here.

From article PMC4505445 (The Journal of Biological Chemistry, 2015)
